≈ marks a conversion by molar mass, not a printed value. Numbered stars: 1 amine (or outer) side, 2 acyl side, 3 side chain; on linkers, the order of the positions; unused ones are H or OH. Square brackets hold non-standard residues; d marks the D form. Peptide text beside a SMILES is read from it. X2 = C[C@@H](c1cccc2ccccc12)N(CC(=O)[*:2])[*:1]; Nspe = C[C@H](NCC(=O)O)c1ccccc1; Nphe = O=C(O)CNCc1ccccc1; Nlys = NCCCCNCC(=O)O
Columns and labels:
erythrocytes = assay: Hemolytic activity (HD10/HD50); assay type: cell-based
Source text: Table 1 Characteristics of antimicrobial peptoids, screened for activity against B. subtilis and E. coli bacterial strains. | column: HD10 / HD50

E. coli ATCC 35218 = assay type: cell-based
Experimental: MICs against B. subtilis and E. coli screening bacterial strains were determined using serial dilution in 96-well microtiter plates in accordance with CLSI M7-A6 protocols. Briefly, peptoid solution in cation-adjusted Mueller-Hinton broth was prepared by 2:1 serial dilution with a total volume of 50 µL per well. In experimental wells, 50 µL of bacterial inoculums (1 x 10^6 CFU/mL) were added to the peptoid solutions. Positive controls consisted of 50 µL inoculums added to 50 µL cation-adjusted Mueller-Hinton broth containing no peptoid, while negative controls contained only cation-adjusted Mueller-Hinton broth. […] Experiments were reproducible among three independent replicates, each consisting of two parallel trials.

[1] = system: P. aeruginosa LES400 (MDR); assay: microbe, parasite or virus in culture; details: LES400 (MDR)
Experimental: (§1) The MICs of test agents were measured using a modified broth micro-dilution method in Difco Mueller Hinton medium, on a panel of bacterial pathogens that were both susceptible and resistant to common antibiotics (S1 File). Briefly, serial dilutions were performed in 0.01% acetic acid containing 0.2% bovine serum albumin at 10-fold the desired final concentration. Ten μL of the 10-fold concentrated test reagents were added to each well of a 96-well polypropylene microtitre plate containing 90 μL of Mueller Hinton media per well. Bacteria were added to the plate from an overnight culture at a final concentration of 2–7 x 10^5 CFU/mL and incubated overnight at 37°C. The MIC is defined as the concentration at which no growth was observed.
(§2) Screening of peptoid antimicrobial activity against a panel of multidrug resistant superbugs was done according to the protocol described in the manuscript. The bacterial strains used in this panel included; P. aeruginosa PAO1 strain H103 [1], P. maltophilia ATCC#13637, S. aureus ATCC#25923 [1], E. faecalis ATCC#29212 [2], and E. cloacae 218R, constitutively expressing Class C chromosomal β-lactamase, were from the Hancock lab strains collection. An MRSA clinical isolate was kindly provided by Anthony Chow (Vancouver General Hospital, Vancouver, Canada). Two Klebsiella pneumoniae and two E. coli clinical isolates expressing extended spectrum β-lactamases (ESBL) were kindly provided by George Zhanel (Health Sciences Centre, Winnipeg, Canada). Vancomycin-resistant clinical isolates of Enterococcus faecalis and E. faecium were obtained from Ana M. Paccagnella (BC Centre for Disease Control, Vancouver, Canada). Three clinical isolates (#9, #198 and #213) of multi-drug resistant P. aeruginosa, were kindly provided by Carlos Kiffer (University of São Paulo, Brazil). […] Three P. aeruginosa clinical isolates of the Liverpool epidemic strain (LES) (H1027, H1030 and LES400) were all kindly provided by Craig Winstanley (University of Liverpool, UK). […] All tested bacterial strains were categorized as biohazard level 2 pathogens.

[2] = system: K. pneumonia 61962 (ESBL); assay: microbe, parasite or virus in culture
Experimental: as §1, §2

E. coli 63103 (ESBL) = assay: microbe, parasite or virus in culture; details: 63103 (ESBL)
Experimental: as §1, §2

E. faecium mic80 (VRE) = assay: microbe, parasite or virus in culture; details: mic80 (VRE)
Experimental: as §1, §2

[3] = system: P. aeruginosa H1027 (MDR); assay: microbe, parasite or virus in culture; details: H1027 (MDR)
Experimental: as §1, §2

P. aeruginosa 9 (MDR) = assay: microbe, parasite or virus in culture; details: 9 (MDR)
Experimental: as §1, §2

E. coli 64771 (ESBL) = assay: microbe, parasite or virus in culture; details: 64771 (ESBL)
Experimental: as §1, §2

P. maltophilia ATCC13637 = assay: microbe, parasite or virus in culture; details: ATCC13637
Experimental: as §1, §2

E. faecalis F43559 (VRE) = assay: microbe, parasite or virus in culture; details: F43559 (VRE)
Experimental: as §1, §2

P. aeruginosa 198 (MDR) = assay: microbe, parasite or virus in culture; details: 198 (MDR)
Experimental: as §1, §2

E. faecium T62764 (VRE) = assay: microbe, parasite or virus in culture; details: T62764 (VRE)
Experimental: as §1, §2

E. faecalis W61950 (VRE) = assay: microbe, parasite or virus in culture; details: W61950 (VRE)
Experimental: as §1, §2

S. aureus ATCC25923 = assay: microbe, parasite or virus in culture; details: ATCC25923
Experimental: as §1, §2

E. faecalis ATCC29212 = assay: microbe, parasite or virus in culture; details: ATCC29212
Experimental: as §1, §2

[4] = system: P. aeruginosa H1030 (MDR); assay: microbe, parasite or virus in culture; details: P. aeruginosa H1030 (MDR)
Experimental: as §1, §2

[5] = system: K. pneumonia 63575 (ESBL); assay: microbe, parasite or virus in culture
Experimental: as §1, §2

P. aeruginosa 213 (MDR) = assay: microbe, parasite or virus in culture; details: 213 (MDR)
Experimental: as §1, §2

S. aureus C623 (MRSA) = assay: microbe, parasite or virus in culture; details: C623
Experimental: as §1, §2

[6] = system: P. aeruginosa H103 (wild type); assay: microbe, parasite or virus in culture; details: H103 (wild type)
Experimental: as §1, §2

[7] = system: E. cloacae 218R Class C β-lactamase; assay: microbe, parasite or virus in culture; details: 218R Class C β-lactamase
Experimental: as §1, §2

## C[C@@H](c1ccccc1)N(CC(N)=O)C(=O)CN(C(=O)CN(CCCCN)C(=O)CN(Cc1ccccc1)C(=O)CN(Cc1ccccc1)C(=O)CN(CCCCN)C(=O)CN(C(=O)CN(C(=O)CN(CCCCN)C(=O)CN(Cc1ccccc1)C(=O)CN(Cc1ccccc1)C(=O)CNCCCCN)[C@@H](C)c1ccccc1)[C@@H](C)c1ccccc1)[C@@H](C)c1ccccc1 [1-Npm2,3,8,9, H-(NLys-Npm-Npm-NLys-Nspe-Nspe)2-NH2]
erythrocytes
  HD10 (hemolytic activity): 39
  HD50 (hemolytic activity): > 200
E. coli ATCC 35218
  MIC E. coli: 6.3 µM (≈ 11.1 µg/mL)
[1]
  MIC: 4 µg/mL (≈ 2.27 µM)
[2]
  MIC: 32 µg/mL (≈ 18.1 µM)
E. coli 63103 (ESBL)
  MIC: 8 µg/mL (≈ 4.54 µM)
E. faecium mic80 (VRE)
  MIC: 4 µg/mL (≈ 2.27 µM)
[3]
  MIC: 2 µg/mL (≈ 1.13 µM)
P. aeruginosa 9 (MDR)
  MIC: 64 µg/mL (≈ 36.3 µM)
E. coli 64771 (ESBL)
  MIC: 4 µg/mL (≈ 2.27 µM)
P. maltophilia ATCC13637
  MIC: 1 µg/mL (≈ 0.567 µM)
E. faecalis F43559 (VRE)
  MIC: 8 µg/mL (≈ 4.54 µM)
P. aeruginosa 198 (MDR)
  MIC: 8 µg/mL (≈ 4.54 µM)
E. faecium T62764 (VRE)
  MIC: 1 µg/mL (≈ 0.567 µM)
E. faecalis W61950 (VRE)
  MIC: 8 µg/mL (≈ 4.54 µM)
S. aureus ATCC25923
  MIC: 2 µg/mL (≈ 1.13 µM)
E. faecalis ATCC29212
  MIC: 4 µg/mL (≈ 2.27 µM)
[4]
  MIC: 16 µg/mL (≈ 9.07 µM)
[5]
  MIC: 16 µg/mL (≈ 9.07 µM)
P. aeruginosa 213 (MDR)
  MIC: 4 µg/mL (≈ 2.27 µM)
S. aureus C623 (MRSA)
  MIC: 2 µg/mL (≈ 1.13 µM)
[6]
  MIC: 4 µg/mL (≈ 2.27 µM)
[7]
  MIC: 8 µg/mL (≈ 4.54 µM)

## C[C@@H](c1ccccc1)N(CC(N)=O)C(=O)CN(Cc1ccccc1)C(=O)CN(CCCCN)C(=O)CN(C(=O)CN(Cc1ccccc1)C(=O)CN(CCCCN)C(=O)CN(C(=O)CN(Cc1ccccc1)C(=O)CN(CCCCN)C(=O)CN(C(=O)CN(Cc1ccccc1)C(=O)CNCCCCN)[C@@H](C)c1ccccc1)[C@@H](C)c1ccccc1)[C@@H](C)c1ccccc1 [1-Npm2,5,8,11, H-(NLys-Npm-Nspe)4-NH2] (H-[Nlys][Nphe][Nspe][Nlys][Nphe][Nspe][Nlys][Nphe][Nspe][Nlys][Nphe][Nspe]-NH2)
erythrocytes
  HD10 (hemolytic activity): 87
  HD50 (hemolytic activity): > 200
E. coli ATCC 35218
  MIC E. coli: 6.3 µM (≈ 11.1 µg/mL)
[1]
  MIC: 8 µg/mL (≈ 4.54 µM)
[2]
  MIC: 32 µg/mL (≈ 18.1 µM)
E. coli 63103 (ESBL)
  MIC: 8 µg/mL (≈ 4.54 µM)
E. faecium mic80 (VRE)
  MIC: 4 µg/mL (≈ 2.27 µM)
[3]
  MIC: 2 µg/mL (≈ 1.13 µM)
P. aeruginosa 9 (MDR)
  MIC: 64 µg/mL (≈ 36.3 µM)
E. coli 64771 (ESBL)
  MIC: 4 µg/mL (≈ 2.27 µM)
P. maltophilia ATCC13637
  MIC: 2 µg/mL (≈ 1.13 µM)
E. faecalis F43559 (VRE)
  MIC: 4 µg/mL (≈ 2.27 µM)
P. aeruginosa 198 (MDR)
  MIC: 8 µg/mL (≈ 4.54 µM)
E. faecium T62764 (VRE)
  MIC: 1 µg/mL (≈ 0.567 µM)
E. faecalis W61950 (VRE)
  MIC: 16 µg/mL (≈ 9.07 µM)
S. aureus ATCC25923
  MIC: 4 µg/mL (≈ 2.27 µM)
E. faecalis ATCC29212
  MIC: 4 µg/mL (≈ 2.27 µM)
[4]
  MIC: 16 µg/mL (≈ 9.07 µM)
[5]
  MIC: 16 µg/mL (≈ 9.07 µM)
P. aeruginosa 213 (MDR)
  MIC: 4 µg/mL (≈ 2.27 µM)
S. aureus C623 (MRSA)
  MIC: 8 µg/mL (≈ 4.54 µM)
[6]
  MIC: 4 µg/mL (≈ 2.27 µM)
[7]
  MIC: 8 µg/mL (≈ 4.54 µM)

## C[C@@H](c1ccccc1)N(CC(=O)N(CCCCN)CC(=O)N(CC(=O)N(CC(=O)N(CCCCN)CC(=O)N(CC(=O)N(CC(=O)N(CCCCN)CC(=O)N(CC(=O)N(CC(N)=O)[C@@H](C)c1cccc2ccccc12)[C@@H](C)c1ccccc1)[C@@H](C)c1ccccc1)[C@@H](C)c1ccccc1)[C@@H](C)c1cccc2ccccc12)[C@@H](C)c1ccccc1)C(=O)CN(C(=O)CNCCCCN)[C@@H](C)c1ccccc1 [1-Nsna6,12, H-(NLys-Nspe-Nspe-NLys-Nspe-Nsna)2-NH2] (H-[Nlys][Nspe][Nspe][Nlys][Nspe][X2][Nlys][Nspe][Nspe][Nlys][Nspe][X2]-NH2)
[1]
  MIC: 8 µg/mL (≈ 4.17 µM)
[2]
  MIC: 64 µg/mL (≈ 33.3 µM)
E. coli 63103 (ESBL)
  MIC: 16 µg/mL (≈ 8.34 µM)
E. faecium mic80 (VRE)
  MIC: 4 µg/mL (≈ 2.08 µM)
[3]
  MIC: 2 µg/mL (≈ 1.04 µM)
P. aeruginosa 9 (MDR)
  MIC: 128 µg/mL (≈ 66.7 µM)
E. coli 64771 (ESBL)
  MIC: 8 µg/mL (≈ 4.17 µM)
P. maltophilia ATCC13637
  MIC: 1 µg/mL (≈ 0.521 µM)
E. faecalis F43559 (VRE)
  MIC: 8 µg/mL (≈ 4.17 µM)
P. aeruginosa 198 (MDR)
  MIC: 16 µg/mL (≈ 8.34 µM)
E. faecium T62764 (VRE)
  MIC: 2 µg/mL (≈ 1.04 µM)
E. faecalis W61950 (VRE)
  MIC: 16 µg/mL (≈ 8.34 µM)
S. aureus ATCC25923
  MIC: 4 µg/mL (≈ 2.08 µM)
E. faecalis ATCC29212
  MIC: 4 µg/mL (≈ 2.08 µM)
[4]
  MIC: 32 µg/mL (≈ 16.7 µM)
[5]
  MIC: 32 µg/mL (≈ 16.7 µM)
P. aeruginosa 213 (MDR)
  MIC: 8 µg/mL (≈ 4.17 µM)
S. aureus C623 (MRSA)
  MIC: 4 µg/mL (≈ 2.08 µM)
[6]
  MIC: 4 µg/mL (≈ 2.08 µM)
[7]
  MIC: 32 µg/mL (≈ 16.7 µM)

Reference: article PMC4744035, “In Vivo, In Vitro, and In Silico Characterization of Peptoids as Antimicrobial Agents” (PLoS ONE, 2016)
